Results taken from patent publication US20220160703A1, “TUMOR-SELECTIVE COMBINATION THERAPY” (The Board of Regents of The University of Texas System, priority 2019, published 2022).

Test system: tumor specific T cells
Test: IFNγ ELISPOT / CBA tumor-specific T cell response
Type: in vivo, mice
Protocol: FIGS. 3A-E. Batf3-dependent dendritic cell-mediated T cell cross-priming is required for the antitumor effect of β-lap. […] IFNγ producing cells were determined by ELISPOT assay. […] (FIG. 3D) MC38 cells were subcutaneously transplanted into C57BL/6 WT (n=5/group) and Batf3^-/- mice (n=5/group for Batf3^-/- vehicle; n=6/group for Batf3^-/- β-lap), respectively. Tumor bearing mice were treated with β-lap (0.3 mg, i.t.) every other day for four times. Tumor growth was monitored twice a week. (FIG. 3E) MC38-OVA bearing mice (n=3/group) were treated with β-lap (0.3 mg, i.t.) for one time, and 4 days later, CD11c^+ dendritic cells were purified from the tumor drain lymph node, and cocultured with CD8 T cells isolated from the spleen of OT-1 transgenic mice. The activity of cross-priming of T cells was determined by the level of cell-secreted IFNγ via Cytometric Bead Array (CBA) mouse IFNγ assay. Data are shown as mean±SEM from three independent experiments. **P<0.01, ***P<0.001, ****P<0.0001 determined by unpaired student t-test (FIGS. 3A, 3B and 3E) or two-way ANOVA (FIGS. 3C and 3D). FIGS. 4A-F. Type I IFNs and TLR4/MyD88/signaling is required for the antitumor effect of β-lap and tumor specific CTLs. (FIG. 4A) MC38 tumor bearing C57BL/6 mice (n=5/group) were treated with β-lap (0.3 mg, i.t.) every other day for four times. Anti-IFNAR blocking antibodies (150 μg, i.t.) were administrated every four days for three times during the treatment. (FIG. 4B) The MC38 tumor bearing WT (n=5/group) and […]=4/group) C57BL/6 mice were treated with β-lap (0.3 mg, i.t.) every other day for four times. (FIG. 4C) MC38 tumor bearing WT (n=5/group) and Myd88^-/- (n=3/group) C57BL/6 mice were treated with β-lap (0.3 mg, i.t.) every other day for four times. (FIG. 4D) MC38 tumor bearing WT (n=5/group) and Tlr4^-/- (n=4/group) C57BL/6 mice were treated with β-lap (0.3 mg, i.t.) every other day for four times). (FIG. 4E) MC38 tumor bearing C57BL/6 mice (n=5/group) were treated with β-lap (0.3 mg, i.t.) every other day for four times. Anti-HMGB1 neutralized antibodies (200 μg, i.p) were administrated every three days for three times during the treatment. Tumor growth was monitored twice a week. (FIG. 4F) MC38 tumor bearing WT (n=4/group) or Tlr4^-/- (n=4/group) or MyD88-/- (n=6/group) C57BL/6 mice were treated with β-lap (0.3 mg, i.t.) every other day for four times. Anti-HMGB1 neutralized antibodies (200 μg, i.p) were administrated every three days for three times during the treatment. 12 days after the initial treatment, lymphocytes from the TdLN were isolated and stimulated with MC38 tumor cells irradiated with 60 Gy. IFNγ producing cells were determined by ELISPOTs assay. Data are shown as mean±SEM from two to three independent experiments. *P<0.05, **P<0.01, ***P<0.001, ****P<0.0001 determined by two-way ANOVA. […] (FIG. 6A) Treatment schema for local β-lap treatment based combinative therapy in FIG. 6B and FIG. 6C. (FIGS. 6B-C) MC38 tumor cells were s.c. inoculated into the flank of C57BL/6 mice (n=5/group). […] Tumor growth was monitored twice a week, and numbers of tumor free mice after treatment were shown. […] Tumor growth was monitored twice a week, and numbers of tumor free mice after treatment were shown. […] 12 days after first treatment, tumor infiltrating CD45^+ cells and lymphocytes were analyzed by flow cytometry (FIG. 6G), and OT-1 antigen specific T cells in the spleen were determined by IFNγ ELISPOT assay (FIG. 6H). […]

**Q.** Which results are given for `CC1(C)CCC2=C(O1)c1ccccc1C(=O)C2=O` [β-lap, β-lapachone]?
**A.** IFNγ-producing T cells (MC38, splenocytes 10 days after first β-lap, irradiated tumor cells): dramatically increased; OT1 antigen specific T cells in tumor tissues and spleen (MC38-OVA, 12 days after initial treatment): neither β-lap or anti-PD-L1 monotherapy increased; numbers of OTI specific T cells in spleen (MC38-OVA, OTI peptide stimulation): much higher; IFNγ production by OTI T cells primed by TdLN DCs (MC38-OVA, β-lap 0.3 mg i.t. once, DCs 4 days later, CBA): more IFNγ production; tumor-reactive T cells in TdLN (WT mice, MC38, 12 days after initial treatment): increased the number of tumor-reactive T cells
